The target of one assay is PRMT5-MEP50 (Homo sapiens, UniProt O14744). In words: PRMT5 Assay (PRMT5 biochemical assay). The procedure, abridged:
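Radiometric methyltransferase read-out: after 60 min reaction, excess unlabelled SAM (15 μM) stops turnover and biotinylated H4 peptide (100 nM) carrying 3H-methyl from 250 nM 3H-SAM is captured on streptavidin flashplates (2 h, 25° C) for scintillation counting. Enzyme, 2.5 nM PRMT5-MEP50, was preincubated 5 min with compound in pH 8.0 Tris buffer with DTT and Tween.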

The next assay has as its target METTL1/WDR4 (Homo sapiens, UniProt Q9UBP6). In words: METTL1 Assay (METTL1 biochemical assay). A digest of the protocol: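 Radiometric methyltransfer by METTL1/WDR4 (6.25 nM f.c., 5 min preincubation) at ambient temperature in HEPES pH 7.5, KCl, MgCl2, DTT; started with 25 nM 3′-biotinylated RNA and 60 nM 3H-SAM, run 20 min, quenched with 15 μM cold SAM. Product captured on streptavidin flashplates (2 h, 25° C), counted by scintillation.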

For assay [1], the system named is m6A in cellular mRNA of MOLM-13 cells. In words: m6A-mRNA LC-MS/MS Assay (m6A cellular assay). The format is cell-based. To be noted: Homo sapiens. As for the experimental part:
Cells were harvested by centrifugation followed by mRNA extraction using DIRECT Dynabeads mRNA DIRECT kit (Life Technologies). mRNA was quantified on NanoDrop spectrophotometer (Thermo Fisher Scientific) and digested into single nucleosides using Nucleoside Digestion Mix (New England Biolabs). […] Quantification is performed in comparison with the standard curve, obtained from pure nucleoside standards (Selleck Chemicals) running with the same batch of samples. Percentage m^6A in cellular mRNA is calculated as 100*(m^6A/A).

A further assay deals with METTL3/METTL14 (Homo sapiens, UniProt Q86U44). In words: METTL3-14 Standard Enzyme Assay (METTL3 biochemical assay). A digest of the protocol:
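Tritium transfer from ³H-SAM (100 nM) to biotinylated RNA (100 nM) captured on streptavidin flashplates and counted by scintillation. Enzyme complex (2.5 nM) with compound, 5 min preincubation, 30 min reaction at ambient temperature, HEPES pH 7.5 buffer, stopped by excess unlabeled SAM.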

A further assay addresses T1, METTL16 (Homo sapiens, UniProt Q86W50).
T1 sequence (Q86W50 1-562): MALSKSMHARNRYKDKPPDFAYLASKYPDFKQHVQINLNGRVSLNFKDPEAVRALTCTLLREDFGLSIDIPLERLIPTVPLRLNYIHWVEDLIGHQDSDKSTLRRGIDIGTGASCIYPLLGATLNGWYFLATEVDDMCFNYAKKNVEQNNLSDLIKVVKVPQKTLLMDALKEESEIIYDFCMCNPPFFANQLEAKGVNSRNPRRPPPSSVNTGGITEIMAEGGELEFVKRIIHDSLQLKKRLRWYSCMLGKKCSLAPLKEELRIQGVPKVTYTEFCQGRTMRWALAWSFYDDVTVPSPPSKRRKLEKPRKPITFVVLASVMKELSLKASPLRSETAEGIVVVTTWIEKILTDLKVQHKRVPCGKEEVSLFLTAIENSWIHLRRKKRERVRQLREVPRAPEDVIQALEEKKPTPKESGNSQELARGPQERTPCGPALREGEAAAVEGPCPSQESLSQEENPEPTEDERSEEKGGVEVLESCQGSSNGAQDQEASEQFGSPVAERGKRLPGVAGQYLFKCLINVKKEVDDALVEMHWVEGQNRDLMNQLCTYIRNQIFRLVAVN
In words: METTL16 Assay (METTL16 biochemical assay). The settings on record: read-out: METTL16 IC50. As for the experimental part: Assays were performed in a 25 μl-volume in 384-well V-bottom polypropylene microplates (Greiner Bio-One, cat. No. 781280) at ambient temperature. Optimized 1× assay buffer was 20 mM HEPES pH 7.5, 50 mM KCl, 1 mM DTT, 0.01% Tween, 0.01% BSG, 0.004 U/μl RNAseOUT (cat. No. 10777019, ThermoFisher Scientific, Waltham, Mass.). For compound screening METTL16 (final concentration, f.c.=100 nM) was added using a Multidrop Combi (ThermoFisher Scientific, Waltham, Mass.) and preincubated for 5 min. Reactions were started by adding 3′ biotinylated RNA ([…]-biotin) (f.c.=50 nM), 3H-SAM (f.c.=200 nM) and non-radiolabeled SAM (f.c.=800 nM) substrates. Reactions proceeded for 20 minutes and were quenched with excess non-radioactive SAM (f.c.=100 μM). The reactions were then transferred to streptavidin-coated flashplates and incubated for 2 hours at 25° C. Following two washing cycles with 0.1% Tween-20, the plates were sealed and read on a TopCount (PerkinElmer, Waltham, Mass.) plate-based scintillation counter. For determination of kinetic parameters, reaction times were optimized so that measurements were taken during the initial velocity phase of the reaction.

The test system of the next assay is MOLM-13 cells. The assay can be described thus: MOLM-13 96 Hour Cell Proliferation Assay. The settings on record: Homo sapiens. In kind it is cell-based. The procedure: MOLM-13 (DSMZ) cells were seeded at 600 cells per well in a volume of 44 μL in a Greiner Bio-One CELLSTAR™ 384 Well Polystyrene Cell Culture clear bottom microplate in RPMI 1640 media containing 10% fetal bovine serum using a Multidrop Combi (ThermoFisher Scientific). Cells were incubated overnight at 37° C. in a humidified tissue culture incubator. To prevent evaporation or to reduce edge effect, add 50 μL or more H2O to an empty plate, cover, and place on top of the cell plates. The Mosquito® HTS Liquid Handler was used to make a compound/media intermediate plate by aliquoting 1 μL of compound from the initial compound dilution plate (concentrations ranging from 10.0 mM to 38.0 nM in 100% DMSO) into Bio-One 384-well polypropylene conical bottom microplate containing 49 μL of media containing the appropriate serum (50-fold dilution, 2% DMSO, compound concentrations ranging from 200.0 μM and […]). The Apricot liquid handling system was used to transfer 6.2 μL compounds from the intermediate plate into the seeding plate containing 44 μL cells (8-fold dilution spanning concentrations 25.0 μM to […], 0.25% DMSO final), and placed in a humidified tissue culture incubator at 37° C. After 96 hours, 25 μL of Cell Titer-Glo reagent (Promega) was added to each well using an Integra liquid handling system. The plate was protected from light using TopSeal-A (Black) film over the entire plate, added White Bottom seal film on the bottom of the entire plate for a better reading on the Envision, and placed on an IKA plate shaker for at 300 rpm for 10 minutes at room temperature. The plate was read on an EnVision plate reader (Perkin Elmer) using the Ultra Sensitive Luminescence protocol. Data analysis was performed by normalizing the raw luminescence units to an average of the positive control values for staurosporine (100% cell death) and the negative control values for DMSO (0% cell death). An IC50 was calculated using a 4-parameter logistic nonlinear regression model in GraphPad Prism.

The mark [2] stands for this setting: PRMT5 biochemical assay, read-out: PRMT5 IC50.
[3] abbreviates: METTL1 biochemical assay, read-out: METTL1 IC50.
Setting [4] is: METTL3 biochemical assay, read-out: METTL3 IC50.
[5] abbreviates: read-out: PRMT5 IC50, PRMT5 biochemical assay.
[6] abbreviates: read-out: METTL3 IC50, METTL3 biochemical assay.
[7] abbreviates: read-out: METTL1 IC50, METTL1 biochemical assay.

Structures are written as SMILES. Where two headings read alike, the source gives them in different places.

Sequence of METTL1/WDR4 (Q9UBP6 whole entry, species assumed): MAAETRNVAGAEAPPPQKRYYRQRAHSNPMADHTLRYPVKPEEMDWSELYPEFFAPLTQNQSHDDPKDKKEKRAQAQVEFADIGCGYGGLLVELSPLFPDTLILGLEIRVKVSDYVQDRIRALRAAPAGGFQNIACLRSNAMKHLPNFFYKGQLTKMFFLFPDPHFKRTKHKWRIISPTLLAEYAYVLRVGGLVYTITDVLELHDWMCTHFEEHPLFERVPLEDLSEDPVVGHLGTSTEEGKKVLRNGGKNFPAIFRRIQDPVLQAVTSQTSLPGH
Sequence of METTL1/WDR4 (P57081 whole entry partner, species assumed): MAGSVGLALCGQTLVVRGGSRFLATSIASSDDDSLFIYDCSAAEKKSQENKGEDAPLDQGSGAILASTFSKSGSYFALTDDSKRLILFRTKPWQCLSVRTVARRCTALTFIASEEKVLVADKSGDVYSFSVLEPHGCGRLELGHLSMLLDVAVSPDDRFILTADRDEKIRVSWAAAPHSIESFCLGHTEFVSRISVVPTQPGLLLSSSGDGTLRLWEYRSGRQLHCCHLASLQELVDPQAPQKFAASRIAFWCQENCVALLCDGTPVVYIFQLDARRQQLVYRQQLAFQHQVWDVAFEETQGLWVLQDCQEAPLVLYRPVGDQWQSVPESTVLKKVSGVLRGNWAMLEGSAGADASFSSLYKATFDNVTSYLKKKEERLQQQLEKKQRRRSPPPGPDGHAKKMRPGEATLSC
Sequence of METTL3/METTL14 (Q86U44 whole entry, species assumed): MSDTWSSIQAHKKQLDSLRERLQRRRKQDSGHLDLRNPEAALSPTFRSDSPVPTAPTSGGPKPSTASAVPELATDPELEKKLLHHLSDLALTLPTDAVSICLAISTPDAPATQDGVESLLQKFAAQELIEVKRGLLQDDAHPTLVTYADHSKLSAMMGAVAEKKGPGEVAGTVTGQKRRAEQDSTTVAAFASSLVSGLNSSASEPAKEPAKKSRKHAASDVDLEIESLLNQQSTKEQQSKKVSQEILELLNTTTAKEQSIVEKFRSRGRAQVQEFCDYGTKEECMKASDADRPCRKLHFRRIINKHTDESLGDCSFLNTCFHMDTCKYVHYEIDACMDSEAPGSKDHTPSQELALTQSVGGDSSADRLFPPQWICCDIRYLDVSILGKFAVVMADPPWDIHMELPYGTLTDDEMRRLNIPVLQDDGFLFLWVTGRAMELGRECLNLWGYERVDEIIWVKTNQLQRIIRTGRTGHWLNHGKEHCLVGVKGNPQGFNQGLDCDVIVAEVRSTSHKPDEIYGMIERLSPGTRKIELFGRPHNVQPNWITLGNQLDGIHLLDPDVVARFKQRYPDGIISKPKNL
Sequence of METTL3/METTL14 (Q9HCE5 whole entry partner, species assumed): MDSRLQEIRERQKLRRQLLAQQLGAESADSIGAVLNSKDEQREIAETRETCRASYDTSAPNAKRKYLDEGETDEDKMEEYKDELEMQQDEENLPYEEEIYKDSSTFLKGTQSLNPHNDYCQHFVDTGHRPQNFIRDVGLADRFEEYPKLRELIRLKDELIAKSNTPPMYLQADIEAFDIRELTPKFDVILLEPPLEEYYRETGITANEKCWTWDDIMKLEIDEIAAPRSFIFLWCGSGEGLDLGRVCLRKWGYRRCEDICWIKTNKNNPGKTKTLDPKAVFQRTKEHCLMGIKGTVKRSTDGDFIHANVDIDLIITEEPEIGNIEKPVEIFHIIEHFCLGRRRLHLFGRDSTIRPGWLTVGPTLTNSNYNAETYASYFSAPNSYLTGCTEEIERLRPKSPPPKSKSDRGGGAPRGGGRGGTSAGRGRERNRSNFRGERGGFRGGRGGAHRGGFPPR
Sequence of PRMT5-MEP50 (O14744 whole entry): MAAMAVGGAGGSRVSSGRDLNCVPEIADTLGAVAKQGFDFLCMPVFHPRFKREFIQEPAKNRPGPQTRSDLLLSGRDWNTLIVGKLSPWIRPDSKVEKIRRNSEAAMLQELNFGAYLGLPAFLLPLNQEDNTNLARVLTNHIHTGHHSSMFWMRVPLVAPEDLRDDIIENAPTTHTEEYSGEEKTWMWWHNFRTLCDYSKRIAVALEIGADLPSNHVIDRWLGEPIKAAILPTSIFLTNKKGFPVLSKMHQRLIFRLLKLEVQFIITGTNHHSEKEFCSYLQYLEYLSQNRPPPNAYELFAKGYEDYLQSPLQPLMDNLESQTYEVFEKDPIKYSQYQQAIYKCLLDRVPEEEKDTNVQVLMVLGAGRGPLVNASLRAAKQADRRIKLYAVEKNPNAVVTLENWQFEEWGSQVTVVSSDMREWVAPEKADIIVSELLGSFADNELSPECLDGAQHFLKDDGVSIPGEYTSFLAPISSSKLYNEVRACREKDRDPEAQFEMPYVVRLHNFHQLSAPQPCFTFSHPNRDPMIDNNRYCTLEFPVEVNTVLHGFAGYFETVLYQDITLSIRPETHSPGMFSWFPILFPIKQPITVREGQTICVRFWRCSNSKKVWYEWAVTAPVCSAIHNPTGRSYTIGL
Sequence of PRMT5-MEP50 (Q9BQA1 whole entry partner): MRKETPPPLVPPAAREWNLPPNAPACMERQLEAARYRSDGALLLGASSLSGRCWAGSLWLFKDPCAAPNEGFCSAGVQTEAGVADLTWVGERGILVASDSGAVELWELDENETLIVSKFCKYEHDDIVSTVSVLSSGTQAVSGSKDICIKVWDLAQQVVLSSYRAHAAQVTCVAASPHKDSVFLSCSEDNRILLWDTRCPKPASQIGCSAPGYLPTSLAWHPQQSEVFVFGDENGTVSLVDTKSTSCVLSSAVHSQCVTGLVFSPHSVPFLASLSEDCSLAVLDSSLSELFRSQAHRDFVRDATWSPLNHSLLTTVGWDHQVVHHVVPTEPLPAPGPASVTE

What is called IC50 is the concentration that gives 50% inhibition. As to `CCNc1ccc2ccc(OC[C@H]3O[C@@H](n4ccc5c(N)ncnc54)[C@@H](F)[C@@H]3O)cc2n1` [I-5], the half-maximal inhibitory concentration (IC50) was 0.01 to 0.1 µM on PRMT5-MEP50 (setting [2]); > 1 µM at METTL1/WDR4 (setting [3]); 1 to 10 µM in assay [1] (MOLM-13, m6A cellular assay, read-out: m^6A IC50); < 0.01 µM on METTL3/METTL14 (setting [4]).
Consider `CNc1ccc2ccc(OC[C@H]3O[C@@H](n4cc(-c5ccn(C)n5)c5c(N)ncnc54)[C@H](O)[C@@H]3O)cc2n1` [I-6], for which the IC50 on PRMT5-MEP50 (setting [5]) is < 0.01 µM; on METTL1/WDR4 (setting [3]) it was > 1 µM; in assay [1] (MOLM-13, read-out: m^6A IC50), < 1 µM; on METTL3/METTL14 (setting [6]), < 0.01 µM.
As for `CCNc1ccc2ccc(OC[C@H]3O[C@@H](n4cc(C5CCCC5)c5c(N)ncnc54)[C@H](O)[C@@H]3O)cc2n1` [I-8], the half-inhibitory concentration (IC50) was < 0.01 µM at PRMT5-MEP50 (setting [2]); > 1 µM at METTL1/WDR4 (setting [7]); < 1 µM in assay [1] (MOLM-13, read-out: m^6A IC50); < 0.01 µM on METTL3/METTL14 (setting [4]).
On to `CNc1ccc2ccc(OC[C@H]3O[C@@H](n4cc(-c5ccccn5)c5c(N)ncnc54)[C@@H](F)[C@@H]3O)cc2n1` [I-9], for which the IC50 is 0.01 to 0.1 µM on PRMT5-MEP50 (setting [5]); > 1 µM on METTL1/WDR4 (setting [3]); 1 to 10 µM in assay [1] (MOLM-13, read-out: m^6A IC50); < 0.01 µM on METTL3/METTL14 (setting [6]).
Consider `Nc1ccnc2cc(OC[C@H]3O[C@@H](n4cc(Br)c5c(N)ncnc54)[C@@H](F)[C@@H]3O)ccc12` [I-13], for which the concentration for half-maximal inhibition (IC50) at PRMT5-MEP50 (setting [2]) is 0.01 to 0.1 µM; on METTL16, > 1 µM; in the assay on MOLM-13 cells (MOLM-13, 96 h), > 10 µM; on METTL3/METTL14 (setting [4]) it was 0.1 to 1 µM.
With `Cc1cc(N)c2ccc(OC[C@H]3O[C@@H](n4cc(Br)c5c(N)ncnc54)C[C@@H]3O)cc2n1` [I-19], the half-maximal inhibitory concentration (IC50) at PRMT5-MEP50 (setting [2]) is 0.1 to 1 µM; on METTL16, > 1 µM; at METTL1/WDR4 (setting [7]) it was > 1 µM; in the assay on MOLM-13 cells (MOLM-13, 96 h), > 10 µM; at METTL3/METTL14 (setting [4]), 0.1 to 1 µM.
For the molecule `Nc1ncnc2c1ccn2[C@@H]1O[C@H](CCc2ccc3ccc(N4CCCC4)nc3c2)[C@@H](O)[C@H]1O` [I-68], the IC50 at PRMT5-MEP50 (setting [2]) was 0.1 to 1 µM; on METTL16, > 1 µM; on METTL1/WDR4 (setting [7]) it was > 1 µM; in the assay with MOLM-13 cells (MOLM-13, 96 h) it was 1 to 10 µM; on METTL3/METTL14 (setting [4]), 0.01 to 0.1 µM.
Regarding `CNc1ccc2cnc(OC[C@H]3O[C@@H](n4cc(Br)c5c(N)ncnc54)[C@H](O)[C@@H]3O)nc2n1` [I-74], the IC50 at PRMT5-MEP50 (setting [2]) is 0.1 to 1 µM; at METTL16 it was > 1 µM; on METTL1/WDR4 (setting [7]), > 1 µM; in the assay with MOLM-13 cells (MOLM-13, 96 h) it was > 10 µM; at METTL3/METTL14 (setting [4]), > 1 µM.
Turning to `Nc1ncnc2c1ccn2[C@@H]1C[C@H](CCc2ccc3ccc(N4CCCC4)nc3c2)[C@@H](O)[C@H]1O` [I-83], the IC50 on PRMT5-MEP50 (setting [2]) was 0.01 to 0.1 µM; on METTL16, > 1 µM; on METTL1/WDR4 (setting [7]), > 1 µM; at METTL3/METTL14 (setting [4]), 0.1 to 1 µM.
For `Cc1cn2ccc(CC[C@H]3C[C@@H](n4ccc5c(N)ncnc54)[C@H](O)[C@@H]3O)cc2n1` [I-84], the IC50 at PRMT5-MEP50 (setting [2]) was < 0.01 µM; at METTL16, > 1 µM; at METTL1/WDR4 (setting [3]) it was > 1 µM; on METTL3/METTL14 (setting [4]) it was > 1 µM.
Turning to `CNc1ccc2ccc(OC[C@@H]3C[C@@H](O)[C@H](n4cc(C5CCCC5)c5c(N)ncnc54)O3)cc2n1` [I-141], the 50% inhibitory concentration (IC50) is 0.1 to 1 µM at PRMT5-MEP50 (setting [2]), > 1 µM at METTL16, > 1 µM at METTL1/WDR4 (setting [7]) and 0.1 to 1 µM on METTL3/METTL14 (setting [4]).
For the molecule `Cn1ccc(-c2cn([C@@H]3C[C@H](COc4ccc5ccc(N6CCC6)nc5c4)[C@@H](O)C3)c3ncnc(N)c23)n1` [I-169, (1S,2R,4R)-4-[4-amino-5-(1-methyl-1H-pyrazol-3-yl)-7H-pyrrolo[2,3-d]pyrimidin-7-yl]-2-({[2-(azetidin-1-yl)quinolin-7-yl]oxy}methyl)cyclopentan-1-ol], the concentration for half-maximal inhibition (IC50) is > 1 µM on PRMT5-MEP50; 1 to 10 µM in the assay on MOLM-13 cells; 1 to 10 µM in assay [1] (MOLM-13, read-out: m^6A IC50); < 0.01 µM against METTL3/METTL14.
Regarding `Cn1ccc(-c2cn([C@@H]3C[C@H](CCc4ccc5ccc(N6CCC6)nc5c4)[C@@H](O)C3)c3ncnc(N)c23)n1` [I-205], the IC50 at PRMT5-MEP50 is > 1 µM; in the assay on MOLM-13 cells, < 1 µM; in assay [1] (MOLM-13, read-out: m^6A IC50), 1 to 10 µM; against METTL3/METTL14, < 0.01 µM.
On to `Cc1ccn(-c2cn([C@@H]3O[C@H](COc4ccc5ccc(N6CCC6)nc5c4)[C@@H](O)[C@@H]3F)c3ncnc(N)c23)n1` [I-218], for which the IC50 against PRMT5-MEP50 was > 1 µM; in the assay on MOLM-13 cells it was 1 to 10 µM; in assay [1] (MOLM-13, read-out: m^6A IC50), 1 to 10 µM; on METTL3/METTL14, < 0.01 µM.
For the molecule `CNc1ccc2ccc(OC[C@H]3O[C@@H](n4ccc5c(N)nc(C(=O)OC)nc54)[C@@H](F)[C@@H]3O)cc2n1` [I-223], the half-inhibitory concentration (IC50) at PRMT5-MEP50 (setting [2]), at METTL16, against METTL1/WDR4 and at METTL3/METTL14 (setting [4]) was > 1 µM throughout.
